Patent US4265901A, “2-Oxybenzimidazoline compounds” (priority 1979, dated 1981)
Where “and” joins values, the source holds several entries; their conditions need not be identical. Equal entries are not always repeated. Structures can show the parent of a compound that is named as a salt.

What was measured:
Corn [1] = experiment: Pre-emergence herbicide test, corn; type: in vivo, Zea mays
Procedure: (§1) In this evaluation, each compound to be tested was dissolved in a 1:1 mixture of acetone and ethanol containing a small amount of Toximul R and Toximul S (each a sulfonate/nonionic blend produced by Stepan Chemical Company, Northfield, Illinois). The solution was then diluted with deionized water to a composition of the following concentrations, by weight: Plant species used as indicators of herbicidal activity were planted in galvanized pans (flats) 31.5 cm. long, 21.5 cm. wide, and 8.0 cm. deep. The bottoms of the flats had holes to facilitate drainage. The soil used was a 1:1 ratio by volume of masonry sand and shredded top soil. Seeds of seven indicator species were planted in rows perpendicular to the long axis of the flat, one species per row, and covered with 0.5 to 1.0 cm. of sterilized soil. Indicator species and approximate number of seeds planted were as follows: Flats that were to receive preemergence treatments were planted one day prior to, or on the same day treatments were applied. Flats that were to receive postemergence treatments were planted 9 days prior to treatment and placed in a growth chamber until the day of treatment. In the growth chamber, flats received 12 to 18 hours of light per day and were subject to temperatures of 75° to 85° F. The formulated test compound was applied uniformly to the indicator species with a modified DeVilbiss atomizer using air pressure of 3 to 5 psi. Each flat received 12.5 ml. of spray solution which was equal to 200 gallons/acre total spray volume. Plants were maintained in a greenhouse after treatment. Herbicidal effects of chemicals were evaluated by two injury rating systems 18 days after preemergence applications and 14 days after postemergence applications. The degree of plant injury was based on a 1 to 5 scale and a single numerical rating was assigned to each test species as follows: […]

Pigweed = experiment: Pre-emergence herbicide test, pigweed; type: in vivo, Amaranthus retroflexus
Procedure: as §1

Morning-glory [2] = experiment: Pre-emergence herbicide test, morningglory; type: in vivo, Ipomoea purpurea
Procedure: as §1

Zinnia [3] = experiment: Pre-emergence herbicide test, zinnia; type: in vivo, Zinnia elegans
Procedure: as §1

Corn [4] = experiment: Post-emergence herbicide test, corn; type: in vivo, Zea mays
Procedure: as §1

Large Crabgrass = experiment: Post-emergence herbicide test, large crabgrass; type: in vivo, Digitaria sanguinalis
Procedure: as §1

Velvetleaf = experiment: Post-emergence herbicide test, velvetleaf; type: in vivo, Abutilon theophrasti
Procedure: as §1

Morning-glory [5] = experiment: Post-emergence herbicide test, morningglory; type: in vivo, Ipomoea purpurea
Procedure: as §1

Zinnia [6] = experiment: Post-emergence herbicide test, zinnia; type: in vivo, Zinnia elegans
Procedure: as §1

Mexican bean beetle = Mexican bean beetle test; type: in vivo, Epilachna varivestis; conditions: 4 days; as to Mexican Bean Beetle Stom. (mortality rating): ranges in brackets are in %
Procedure: (§2) In this evaluation, each compound to be tested was dissolved in a 1:1 mixture of acetone and ethanol containing a small amount of Toximul R and Toximul S (each a sulfonate/nonionic blend produced by Stephan Chemical Company, Northfield, Ill.). The solution was then diluted with distilled water to a concentration of 1000 ppm of test compound.
This test was conducted with second instar larvae of Epilachna varivestis Mulsant, order Coleoptera, family Coccinellidae. Larvae for the test, of uniform size and not molting, were picked by hand from flats of Bountiful snap beans on which they were grown and were placed in 100×20 mm plastic petri dishes for testing. Five larvae were used per replicate.
Two 4- to 6-day-old Bountiful green bean primry leaves (approximately 6 sq. in. of leaf surface) were used for each replicate. Two replicates were run per compound.
[…] […] The nozzle of the atomizer was held 12 to 18 inches from the leaves and was supplied with 5-6 psi air pressure. The atomizer was rinsed with acetone after each compound was sprayed. The plants were allowed to dry. The leaves were then cut from the plants and placed in the petri dishes containing the bean beetle larvae. A small wad of wet cellucotton was added to each dish to help prevent the leaves from wilting.
After 4 days, a mortality count was made and the amount of feeding was noted. Moribund larvae were counted as dead.

Southern armyworm = Southern armyworm test; type: in vivo, Spodoptera eridania; conditions: 1000 ppm, 4 days; also: ranges in brackets are in %
Procedure: as §2
This test was conducted with second to third instar larvae of Spodoptera eridania Cramer, Order Lepidoptera, Family Noctuidae. Uniform larvae (3rd instar) about 1 to 1.2 cm. in length were picked by hand from flats of Henderson lima beans and placed in plastic petri dishes.
The procedure otherwise was the same as used with the Mexican bean beetle reported above, except that 5 ml. of a formulation containing 100 ppm (0.01%) DDT [1,1,1-trichloro-2,2-bis(p-chlorophenyl)ethane] was used as the reference standard.

two-spotted spider mite = experiment: Two-spotted spider mite test; type: in vivo, Tetranychus urticae; conditions: 4 days; also: ranges in brackets are in %
Procedure: as §2, with “compound. Lesser concentration formulations were made by diluting a portion of the 1000 ppm solution with distilled water containing 225 mg. of Toximul R and 125 mg. of Toximul S per liter.” for “compound.”
This test was conducted with nymphs and adults of Tetranychus urticae (Koch), Order Acarina, Family Tetranychidae.
This test was run using blue hubbard squash plants which were grown in vermiculite (insulation grade No. 1) in 5 oz. plastic Dixie cups. One cotyledon is removed from each plant to remain in the cups. On retests two plants were left in each cup and on regular initial tests one plant was left in each cup. Each cotyledon is infested by placing a mite infested trifoliate bean leaf on if. Infected plants in cups were held for one day, then sprayed to wetting with formulations containing 1000 ppm of the test compound, using the DeVilbiss atomizer with 5-6 psi air pressure. Retests were run at 100 ppm. Tests were read four days after treatment. Two unsprayed but infested plants were held as a control. Two infested plants were sprayed with a formulation containing 750 ppm of galecron [N'-(4-chloro-o-tolyl)-N,N-dimethylformamidine monohydrochloride] as a reference standard.

Compound: O=[N+]([O-])c1cc(C(F)(F)F)cc2c1NC(O)(C(F)(F)C(F)F)N2 (stereo not shown) [Example 2, 2-Hydroxy-2-(1,1,2,2-Tetrafluoroethyl)-4-Nitro-6-(Trifluoromethyl)Benzimidazoline, Sodium Salt, and Hydrate]
- plant injury rating (Corn [1]; 1/2 lb/A): 1 (no injury)
- plant injury rating (Corn [1]; 1/4 lb/A): 1 (no injury)
- plant injury rating (Corn [1]; 1 lb/A): 1 (no injury)
- plant injury rating (Corn [1]; 2 lb/A): 1 (no injury)
- plant injury rating (Corn [1]; 4 lb/A): 1 (no injury)
- plant injury rating (Corn [1]; 8 lb/A): 3SB
- plant injury rating (Pigweed; 1/2 lb/A): 2S
- plant injury rating (Pigweed; 1/4 lb/A): 1 (no injury)
- plant injury rating (Pigweed; 2 lb/A): 4SR
- plant injury rating (Pigweed; 4 lb/A): 4RS
- plant injury rating (Pigweed; 8 lb/A): 5D
- plant injury rating (Morning-glory [2]; 1/2 lb/A): 1 (no injury)
- plant injury rating (Morning-glory [2]; 1/4 lb/A): 1 (no injury)
- plant injury rating (Morning-glory [2]; 1 lb/A): 1 (no injury)
- plant injury rating (Morning-glory [2]; 2 lb/A): 2B
- plant injury rating (Morning-glory [2]; 4 lb/A): 4BS
- plant injury rating (Morning-glory [2]; 8 lb/A): 5N
- plant injury rating (Zinnia [3]; 1/2 lb/A): 1 (no injury)
- plant injury rating (Zinnia [3]; 1/4 lb/A): 1 (no injury)
- plant injury rating (Zinnia [3]; 1 lb/A): 1 (no injury)
- plant injury rating (Zinnia [3]; 2 lb/A): 2S
- plant injury rating (Zinnia [3]; 4 lb/A): 4BS
- plant injury rating (Zinnia [3]; 8 lb/A): 5D
- plant injury rating (Corn [4]; 1/2 lb/A): 1 (no injury)
- plant injury rating (Corn [4]; 1/4 lb/A): 1 (no injury)
- plant injury rating (Corn [4]; 2 lb/A): 3BS
- plant injury rating (Corn [4]; 4 lb/A): 3BS
- plant injury rating (Corn [4]; 8 lb/A): 5D
- plant injury rating (Large Crabgrass; 1/2 lb/A): 3BS
- plant injury rating (Large Crabgrass; 1/4 lb/A): 2BS
- plant injury rating (Large Crabgrass; 1 lb/A): 4BS
- plant injury rating (Large Crabgrass; 2 lb/A): 5D
- plant injury rating (Large Crabgrass; 4 lb/A): 5D
- plant injury rating (Large Crabgrass; 8 lb/A): 5D
- plant injury rating (Velvetleaf; 1/2 lb/A): 2SB
- plant injury rating (Velvetleaf; 1/4 lb/A): 2B
- plant injury rating (Velvetleaf; 1 lb/A, Hydrate): 3BS and 4BS
- plant injury rating (Velvetleaf; 2 lb/A): 5D
- plant injury rating (Velvetleaf; 4 lb/A): 5D
- plant injury rating (Velvetleaf; 8 lb/A): 5D
- plant injury rating (Morning-glory [5]; 1/2 lb/A): 2B
- plant injury rating (Morning-glory [5]; 1/4 lb/A): 2B
- plant injury rating (Morning-glory [5]; 2 lb/A): 3BS
- plant injury rating (Morning-glory [5]; 4 lb/A): 4BS
- plant injury rating (Morning-glory [5]; 8 lb/A): 5D
- plant injury rating (Zinnia [6]; 1/2 lb/A): 3BS
- plant injury rating (Zinnia [6]; 1/4 lb/A): 3BS
- plant injury rating (Zinnia [6]; 2 lb/A): 5D
- plant injury rating (Zinnia [6]; 4 lb/A): 5D
- plant injury rating (Zinnia [6]; 8 lb/A): 5D
- Mexican Bean Beetle Feed. (feeding rating) (Mexican bean beetle; 100 ppm): 0 (none of the leaves eaten)
- Mexican Bean Beetle Stom. (mortality rating) (Mexican bean beetle; 100 ppm): 3 (100)
- Mexican Bean Beetle Stom. (mortality rating) (Mexican bean beetle; 1000 ppm): 3 (100)
- Southern Armyworm Stom. (mortality rating) (Southern armyworm): 0 (0)
- 2-Sp. Spider Mite Cont. (mortality rating) (two-spotted spider mite; 100 ppm): 3 (100)
- 2-Sp. Spider Mite Cont. (mortality rating) (two-spotted spider mite; 1000 ppm): 3 (100)

Compound: O=[N+]([O-])c1cc(C(F)(F)F)cc2c1NC(O)(C(F)(F)C(F)F)N2O (stereo not shown) [Example 12, 1,2-Dihydroxy-2-(1,1,2,2-Tetrafluoroethyl)-4-Nitro-6-(Trifluoromethyl)Benzimidazoline]
- plant injury rating (Corn [1]; 1/2 lb/A): 1 (no injury)
- plant injury rating (Corn [1]; 1 lb/A): 1 (no injury)
- plant injury rating (Corn [1]; 2 lb/A): 1 (no injury)
- plant injury rating (Corn [1]; 8 lb/A): 1 (no injury)
- plant injury rating (Pigweed; 1/2 lb/A): 1 (no injury)
- plant injury rating (Pigweed; 1 lb/A): 3S
- plant injury rating (Pigweed; 2 lb/A): 4S
- plant injury rating (Pigweed; 8 lb/A): 5N
- plant injury rating (Morning-glory [2]; 1/2 lb/A): 1 (no injury)
- plant injury rating (Morning-glory [2]; 1 lb/A): 1 (no injury)
- plant injury rating (Morning-glory [2]; 2 lb/A): 1 (no injury)
- plant injury rating (Morning-glory [2]; 8 lb/A): 3BS
- plant injury rating (Zinnia [3]; 1/2 lb/A): 1 (no injury)
- plant injury rating (Zinnia [3]; 1 lb/A): 1 (no injury)
- plant injury rating (Zinnia [3]; 2 lb/A): 1 (no injury)
- plant injury rating (Zinnia [3]; 8 lb/A): 4RS
- plant injury rating (Corn [4]; 1/4 lb/A): 1 (no injury)
- plant injury rating (Corn [4]; 1/8 lb/A): 1 (no injury)
- plant injury rating (Corn [4]; 1 lb/A): 1 (no injury)
- plant injury rating (Corn [4]; 2 lb/A): 2B
- plant injury rating (Corn [4]; 8 lb/A): 1 (no injury)
- plant injury rating (Large Crabgrass; 1/4 lb/A): 3BS
- plant injury rating (Large Crabgrass; 1/8 lb/A): 3BS
- plant injury rating (Large Crabgrass; 1 lb/A): 5D
- plant injury rating (Large Crabgrass; 2 lb/A): 5D
- plant injury rating (Large Crabgrass; 8 lb/A): 3BS
- plant injury rating (Velvetleaf; 1/4 lb/A): 2B
- plant injury rating (Velvetleaf; 1/8 lb/A): 2SB
- plant injury rating (Velvetleaf; 1 lb/A): 4BS
- plant injury rating (Velvetleaf; 2 lb/A): 4BS
- plant injury rating (Velvetleaf; 8 lb/A): 4BS
- plant injury rating (Morning-glory [5]; 1/4 lb/A): 1 (no injury)
- plant injury rating (Morning-glory [5]; 1/8 lb/A): 1 (no injury)
- plant injury rating (Morning-glory [5]; 1 lb/A): 3BS
- plant injury rating (Morning-glory [5]; 2 lb/A): 3BS
- plant injury rating (Morning-glory [5]; 8 lb/A): 2B
- plant injury rating (Zinnia [6]; 1/4 lb/A): 3B
- plant injury rating (Zinnia [6]; 1/8 lb/A): 2B
- plant injury rating (Zinnia [6]; 1 lb/A): 5D
- plant injury rating (Zinnia [6]; 2 lb/A): 5D
- plant injury rating (Zinnia [6]; 8 lb/A): 4BS
- Mexican Bean Beetle Stom. (mortality rating) (Mexican bean beetle; 1000 ppm): 3 (100)
- Southern Armyworm Stom. (mortality rating) (Southern armyworm): 0 (0)
- 2-Sp. Spider Mite Cont. (mortality rating) (two-spotted spider mite; 1000 ppm): 3 (100)
